Assay results: ChEMBL document CHEMBL1152587, “Application of the McMurry coupling reaction in the synthesis of tri- and tetra-arylethylene analogues as potential cancer chemotherapeutic agents” (Bioorg Med Chem, 2009)

Key:
DU-145 = test: Anticancer activity against human DU145 cells after 48 hrs by SRB assay; details: DU-145, 48 h
[1] = Inhibition of bovine tubulin polymerization after 20 mins by turbidimetrically

## COc1ccc(/C=C\c2cc(OC)c(OC)c(OC)c2)cc1O [COMBRETASTATIN A4]
DU-145
  GI50: 2 nM

## CC/C(=C(\c1ccccc1)c1ccc(OCCN(C)C)cc1)c1ccccc1 [TAMOXIFEN]
[1]
  IC50: > 40000 nM
